This note sets out measurements from patent US20150260723A1, “COMPANION DIAGNOSTICS FOR TEC FAMILY KINASE INHIBITOR THERAPY” (PHARMACYCLICS, INC., priority 2012, published 2015).

For test [1], the target named is T1, BTK (Homo sapiens, UniProt Q06187). The test is described as follows: Comparison of biotinylated probes, streptavidin coated plate BTK occupancy assay. The test is classed as binding. The arrangement: Positive Control lysates from BTK expressing cell line (DOHH2); endogenous in cells; host or cells: DOHH2 cell lysate. The conditions noted are these: DOHH2 lysate, high and low probe concentrations. The procedure: Selected biotinylated probes were tested for use in target occupancy assays using either the anti-protein antibody coated plate or streptavidin coated plate assay formats. The following probes were tested:
Stock solutions (5 mM and 10 mM) of the probes were prepared as follows. […] For the assays 50× probe was prepared fresh the day of the assay: 1 μl of 5 mM probe to […] PBS.
1) Dilute lysate to desired concentration with PBS to final volume of 500 μl
2) Add Biotinylated probe (final concentration 2.5 μM) to lysate, 37 C for 1 hr
3) Block streptavidin plate w/ 1% BSA, RT, 1 hr, wash w/ PBST 3×
4) Stop reaction by transfer samples onto ice for 10 min, then bring back to RT
5) Add 100 ul treated lysate (in triplicate) to streptavidin plate, RT, 2 hr w/ rocking
6) Wash with 200 μl PBST, 5×
7) Add 100 μl 2nd Ab-HRP, incubate at RT for 1 hr
8) Wash with 200 μl PBST, 3×
9) Add 100 μl TMB, incubate at RT for 10 min
10) Add 50 μl stop solution

For test [2], the target named is T1, BTK. The test is described as follows: standard kinase inhibition assay performed by Nanosyn. The conditions noted are these: [Enzyme] 0.95 nM, [ATP] 20 μM, inc time 1 hr. The test is classed as biochemical. The procedure:
(§1) The following kinases were assayed according the table 4 below:
(§2) Compounds were tested in singlicates using 12 pt (3×-dilutions) dose response format with top concentration of 10 mM or 1 mM.

The target in another test is T2, LCK (Homo sapiens, UniProt P06239).
T2 construct: purchased INVITROGEN P3043
T2 sequence (P06239 whole entry): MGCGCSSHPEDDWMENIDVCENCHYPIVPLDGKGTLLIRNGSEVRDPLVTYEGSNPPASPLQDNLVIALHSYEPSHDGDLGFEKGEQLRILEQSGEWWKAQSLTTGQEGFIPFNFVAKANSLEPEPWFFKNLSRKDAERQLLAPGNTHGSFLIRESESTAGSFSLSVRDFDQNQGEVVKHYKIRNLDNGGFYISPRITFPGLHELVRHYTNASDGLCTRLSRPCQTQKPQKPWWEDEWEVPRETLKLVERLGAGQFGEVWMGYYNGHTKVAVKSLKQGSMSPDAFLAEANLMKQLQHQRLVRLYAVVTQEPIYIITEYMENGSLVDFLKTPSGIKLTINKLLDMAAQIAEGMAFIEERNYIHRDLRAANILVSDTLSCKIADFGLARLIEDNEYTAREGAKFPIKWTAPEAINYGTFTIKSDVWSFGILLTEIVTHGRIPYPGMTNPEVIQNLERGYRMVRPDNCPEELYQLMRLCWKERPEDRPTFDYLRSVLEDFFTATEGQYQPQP
Described as above. In kind it is biochemical. To be noted: [Enzyme] 0.4 nM, [ATP] 50 μM, inc time 1 hr. The procedure:
as §1, §2

In the next test the target is T3, BMX (Homo sapiens, UniProt P51813).
T3 construct: purchased BPS 40402
T3 sequence (P51813 1-675): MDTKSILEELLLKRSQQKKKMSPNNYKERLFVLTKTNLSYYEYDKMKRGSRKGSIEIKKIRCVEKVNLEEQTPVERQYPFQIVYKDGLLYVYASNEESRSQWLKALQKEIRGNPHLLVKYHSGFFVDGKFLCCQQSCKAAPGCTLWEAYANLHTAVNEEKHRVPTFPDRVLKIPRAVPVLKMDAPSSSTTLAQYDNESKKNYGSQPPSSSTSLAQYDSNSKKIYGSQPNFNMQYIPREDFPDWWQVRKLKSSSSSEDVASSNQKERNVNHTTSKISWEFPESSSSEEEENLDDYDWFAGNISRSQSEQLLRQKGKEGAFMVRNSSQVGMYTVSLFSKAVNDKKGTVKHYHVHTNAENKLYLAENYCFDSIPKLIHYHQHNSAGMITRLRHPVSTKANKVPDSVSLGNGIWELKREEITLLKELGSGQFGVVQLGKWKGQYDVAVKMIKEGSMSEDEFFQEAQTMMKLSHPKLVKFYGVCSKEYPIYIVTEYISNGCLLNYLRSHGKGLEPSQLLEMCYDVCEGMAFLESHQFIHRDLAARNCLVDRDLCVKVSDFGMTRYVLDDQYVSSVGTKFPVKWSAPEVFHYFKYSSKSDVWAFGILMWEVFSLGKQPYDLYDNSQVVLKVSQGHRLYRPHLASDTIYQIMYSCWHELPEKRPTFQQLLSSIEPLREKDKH
The description is as above. The test is classed as biochemical. The conditions noted are these: [Enzyme] 1.82 nM, [ATP] 75 μM, inc time 1 hr. As for the experimental part:
as §1, §2

The target in the next test is T4, JAK3 (Homo sapiens, UniProt P52333).
T4 construct: purchased INVITROGEN PV3855
T4 sequence (P52333 781-1124 limits assumed): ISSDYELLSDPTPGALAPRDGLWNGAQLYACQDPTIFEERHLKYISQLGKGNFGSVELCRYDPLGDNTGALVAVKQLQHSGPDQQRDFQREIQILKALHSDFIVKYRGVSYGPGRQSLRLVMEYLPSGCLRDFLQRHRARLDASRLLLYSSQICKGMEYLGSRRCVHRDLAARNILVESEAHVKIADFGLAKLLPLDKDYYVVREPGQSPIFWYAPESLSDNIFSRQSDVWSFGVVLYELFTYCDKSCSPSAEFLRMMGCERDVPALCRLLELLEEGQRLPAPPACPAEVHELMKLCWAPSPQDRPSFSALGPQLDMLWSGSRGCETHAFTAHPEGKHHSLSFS
Described as above. To be noted: [Enzyme] 2 nM, [ATP] 2 μM, inc time 3 hr. In kind it is biochemical. The procedure:
as §1, §2

A further test addresses T5, BLK (Homo sapiens, UniProt P51451).
T5 construct: purchased BPS 40401
The description is as above. The test is classed as biochemical. To be noted: [Enzyme] 0.4 nM, [ATP] 20 μM, inc time 1 hr. As for the experimental part:
as §1, §2

Another test deals with T6, ITK (Homo sapiens, UniProt Q08881).
T6 construct: endogenous in cells; host or cells: Jurkat cell lysate
T6 sequence (Q08881 1-620): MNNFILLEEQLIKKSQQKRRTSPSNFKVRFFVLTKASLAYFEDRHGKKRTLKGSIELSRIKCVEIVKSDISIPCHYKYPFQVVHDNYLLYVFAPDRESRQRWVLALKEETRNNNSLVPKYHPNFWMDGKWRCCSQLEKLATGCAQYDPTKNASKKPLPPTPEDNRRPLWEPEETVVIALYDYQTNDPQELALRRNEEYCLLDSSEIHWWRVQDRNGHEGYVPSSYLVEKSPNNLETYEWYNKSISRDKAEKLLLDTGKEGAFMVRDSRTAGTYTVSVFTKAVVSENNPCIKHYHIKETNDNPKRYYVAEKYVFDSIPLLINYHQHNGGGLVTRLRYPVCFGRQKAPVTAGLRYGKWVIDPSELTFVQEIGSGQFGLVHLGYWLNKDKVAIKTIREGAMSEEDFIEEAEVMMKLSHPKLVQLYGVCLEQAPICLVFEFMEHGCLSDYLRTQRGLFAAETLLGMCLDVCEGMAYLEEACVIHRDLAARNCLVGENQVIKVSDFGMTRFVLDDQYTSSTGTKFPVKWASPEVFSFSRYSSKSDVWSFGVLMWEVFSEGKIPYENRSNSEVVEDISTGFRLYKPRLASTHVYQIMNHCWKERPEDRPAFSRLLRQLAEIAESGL
The description is as above. The conditions noted are these: [Enzyme] 1 nM, [ATP] 50 μM, inc time 3 hr. The test is classed as biochemical. As for the experimental part: as §1, §2

For a further test, the target named is T7, TEC (Homo sapiens, UniProt P42680).
T7 construct: purchased Millipore 14-801
T7 sequence (P42680 1-631): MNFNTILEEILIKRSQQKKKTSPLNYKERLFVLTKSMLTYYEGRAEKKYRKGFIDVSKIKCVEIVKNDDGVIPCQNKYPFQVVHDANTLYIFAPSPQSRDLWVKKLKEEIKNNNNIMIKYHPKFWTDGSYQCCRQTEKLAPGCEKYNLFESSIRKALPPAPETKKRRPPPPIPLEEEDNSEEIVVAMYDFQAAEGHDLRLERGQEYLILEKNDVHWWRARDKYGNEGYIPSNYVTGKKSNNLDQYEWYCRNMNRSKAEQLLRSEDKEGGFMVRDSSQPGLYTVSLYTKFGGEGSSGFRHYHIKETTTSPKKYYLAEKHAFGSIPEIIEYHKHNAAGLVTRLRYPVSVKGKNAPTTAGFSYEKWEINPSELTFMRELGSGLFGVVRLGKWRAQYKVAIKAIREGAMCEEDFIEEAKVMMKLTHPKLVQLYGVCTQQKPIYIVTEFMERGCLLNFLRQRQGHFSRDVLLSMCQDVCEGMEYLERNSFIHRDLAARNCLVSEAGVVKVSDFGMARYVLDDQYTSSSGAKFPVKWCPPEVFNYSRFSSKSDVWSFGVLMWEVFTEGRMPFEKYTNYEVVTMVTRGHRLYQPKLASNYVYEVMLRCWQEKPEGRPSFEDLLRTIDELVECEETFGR
Described as above. The test is classed as biochemical. The conditions noted are these: [Enzyme] 4.6 nM, [ATP] 12 μM, inc time 1 hr. The procedure:
as §1, §2

The next test addresses T8, SRC (Homo sapiens, UniProt P12931).
T8 construct: purchased INVITROGEN P3044
Described as above. The test is classed as biochemical. The conditions noted are these: [Enzyme] 3 nM, [ATP] 25 μM, inc time 1 hr. As for the experimental part:
as §1, §2

Where “and” joins values, the source holds several entries; their conditions need not be identical. Equal values may be shown once.

T1 sequence (Q06187 whole entry): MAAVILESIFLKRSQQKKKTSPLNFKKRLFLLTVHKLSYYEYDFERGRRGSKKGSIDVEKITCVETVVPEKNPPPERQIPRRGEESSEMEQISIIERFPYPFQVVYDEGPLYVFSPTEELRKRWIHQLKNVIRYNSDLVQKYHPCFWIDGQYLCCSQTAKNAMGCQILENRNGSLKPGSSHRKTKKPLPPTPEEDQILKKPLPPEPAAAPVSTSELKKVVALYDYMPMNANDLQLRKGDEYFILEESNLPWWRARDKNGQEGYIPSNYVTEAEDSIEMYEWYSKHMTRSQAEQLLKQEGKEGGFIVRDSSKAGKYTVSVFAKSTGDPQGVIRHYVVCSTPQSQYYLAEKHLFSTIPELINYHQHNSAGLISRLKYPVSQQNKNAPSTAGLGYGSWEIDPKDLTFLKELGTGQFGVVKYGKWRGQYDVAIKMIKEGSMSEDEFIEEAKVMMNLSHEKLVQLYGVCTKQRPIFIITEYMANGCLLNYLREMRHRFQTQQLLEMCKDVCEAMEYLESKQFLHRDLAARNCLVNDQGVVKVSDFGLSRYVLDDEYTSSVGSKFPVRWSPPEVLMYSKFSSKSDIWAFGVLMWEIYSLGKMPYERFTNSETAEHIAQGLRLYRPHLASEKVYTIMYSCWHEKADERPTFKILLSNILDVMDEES
T5 sequence (P51451 whole entry): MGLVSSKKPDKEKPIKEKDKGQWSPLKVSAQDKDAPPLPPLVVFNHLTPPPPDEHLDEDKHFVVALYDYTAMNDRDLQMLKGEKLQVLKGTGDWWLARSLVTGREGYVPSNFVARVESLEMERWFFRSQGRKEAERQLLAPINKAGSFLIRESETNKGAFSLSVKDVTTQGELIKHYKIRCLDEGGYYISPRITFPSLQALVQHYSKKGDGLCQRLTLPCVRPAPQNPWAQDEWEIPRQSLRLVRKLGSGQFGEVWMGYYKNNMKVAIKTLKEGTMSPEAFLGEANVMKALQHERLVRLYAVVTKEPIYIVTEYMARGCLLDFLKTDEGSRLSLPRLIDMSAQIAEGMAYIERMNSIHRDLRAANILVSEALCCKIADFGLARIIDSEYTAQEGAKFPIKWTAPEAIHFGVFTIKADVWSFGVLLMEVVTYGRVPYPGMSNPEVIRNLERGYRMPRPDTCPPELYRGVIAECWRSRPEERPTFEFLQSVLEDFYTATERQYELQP
T8 sequence (P12931 whole entry): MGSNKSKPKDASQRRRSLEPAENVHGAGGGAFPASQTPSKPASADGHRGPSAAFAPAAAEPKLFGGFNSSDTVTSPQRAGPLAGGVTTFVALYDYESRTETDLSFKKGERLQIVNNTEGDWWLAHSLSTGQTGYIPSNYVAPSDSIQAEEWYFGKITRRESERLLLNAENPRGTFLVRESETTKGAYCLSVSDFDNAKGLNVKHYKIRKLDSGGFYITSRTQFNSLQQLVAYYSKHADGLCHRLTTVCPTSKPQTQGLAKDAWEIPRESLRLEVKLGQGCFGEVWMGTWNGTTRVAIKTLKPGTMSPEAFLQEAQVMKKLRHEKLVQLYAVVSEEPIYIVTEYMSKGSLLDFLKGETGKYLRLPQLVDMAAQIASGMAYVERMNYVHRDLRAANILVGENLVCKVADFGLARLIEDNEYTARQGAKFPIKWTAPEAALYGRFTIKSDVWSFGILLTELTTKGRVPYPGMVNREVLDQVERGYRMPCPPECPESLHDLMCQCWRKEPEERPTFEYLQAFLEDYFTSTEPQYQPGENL

`CN(C/C=C/C(=O)N1CCC[C@@H](n2nc(-c3ccc(Oc4ccccc4)cc3)c3c(N)ncnc32)C1)CCCCNC(=O)CCCC(=O)NCCCOCCOCCOCCCNC(=O)CCCC[C@@H]1SC[C@@H]2NC(=O)N[C@@H]21` [Compound I-5]: at BTK [1], the “signal for binding to BTK out of the probes tested” value is “highest signal”. In addition, the IC50 (commonly the concentration at which inhibition is half-maximal) at BTK [2] is 1.02 nM and 0.755 nM; on LCK, 6.92 nM and 5.99 nM; at BMX, 5.57 nM and 4.42 nM; against JAK3 it was 4870 nM and 5340 nM; against BLK, 4.27 nM and 3.66 nM; on ITK it was 198 nM and 187 nM. The IC50 against TEC was 2.29 nM and 1.71 nM; at SRC, 36.3 nM and 33.8 nM.
